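Method: 48-hour compound exposure of cells in 96-well plates, five concentrations, linear interpolation of endpoints. The concentration for full growth arrest is given as TGI.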 Active and inactive are the calls of the source. Rule as the data show it: active = GI50 below about 0.43 µM; inactive = the rest.
Assays:
Experiment in all cases: growth of human tumour cells (NCI), 48 h
CAKI-1 renal = tested on: CAKI-1 renal
UACC-62 melanoma = tested on: UACC-62 melanoma
KM20L2 colon = tested on: KM20L2 colon
SK-MEL-5 melanoma = tested on: SK-MEL-5 melanoma
U251 CNS = tested on: U251 CNS
K-562 leukemia = tested on: K-562 leukemia
MDA-MB-231 breast = tested on: MDA-MB-231 breast
SK-OV-3 ovarian = tested on: SK-OV-3 ovarian
HOP-92 NSCLC = tested on: HOP-92 NSCLC
COLO 205 colon = tested on: COLO 205 colon
BT-549 breast = tested on: BT-549 breast
UO-31 renal = tested on: UO-31 renal
LXFL 529 NSCLC = tested on: LXFL 529 NSCLC
EKVX NSCLC = tested on: EKVX NSCLC
ACHN renal = tested on: ACHN renal
NCI-H522 lung = tested on: NCI-H522 lung
TK-10 renal = tested on: TK-10 renal
HCC-2998 colon = tested on: HCC-2998 colon
SNB-19 CNS = tested on: SNB-19 CNS
PC-3 prostate = tested on: PC-3 prostate
IGROV1 ovarian = tested on: IGROV1 ovarian
DU-145 prostate = tested on: DU-145 prostate
HCT-116 colon = tested on: HCT-116 colon
MCF7 breast = tested on: MCF7 breast
DMS 114 small cell lung = tested on: DMS 114 small cell lung
SR leukemia = tested on: SR leukemia
RXF 393 renal = tested on: RXF 393 renal
HS 578T breast = tested on: HS 578T breast
SNB-78 CNS = tested on: SNB-78 CNS
MOLT-4 leukemia = tested on: MOLT-4 leukemia
A549 NSCLC = tested on: A549 NSCLC
NCI-H460 lung = tested on: NCI-H460 lung
MDA-N = tested on: MDA-N
UACC-257 melanoma = tested on: UACC-257 melanoma
CCRF-CEM leukemia = tested on: CCRF-CEM leukemia
MALME-3M melanoma = tested on: MALME-3M melanoma
NCI-H226 lung = tested on: NCI-H226 lung
OVCAR-3 ovarian = tested on: OVCAR-3 ovarian
LOX IMVI melanoma = tested on: LOX IMVI melanoma
MDA-MB-435 = tested on: MDA-MB-435
OVCAR-5 ovarian = tested on: OVCAR-5 ovarian
OVCAR-8 ovarian = tested on: OVCAR-8 ovarian
HT29 colon = tested on: HT29 colon
NCI/ADR-RES ovarian = tested on: NCI/ADR-RES ovarian
HOP-62 NSCLC = tested on: HOP-62 NSCLC
DMS 273 small cell lung = tested on: DMS 273 small cell lung
RPMI-8226 leukemia = tested on: RPMI-8226 leukemia
SF-268 CNS = tested on: SF-268 CNS
SW-620 colon = tested on: SW-620 colon
KM12 colon = tested on: KM12 colon

SMILES: C=CC(=O)C#CC#CC/C=C\CCCCCCC
- TGI (CAKI-1 renal): > 20.6 µM
- outcome (CAKI-1 renal): inactive
- TGI (UACC-62 melanoma): > 20.6 µM
- outcome (UACC-62 melanoma): inactive
- TGI (KM20L2 colon): > 20.6 µM
- TGI (SK-MEL-5 melanoma): > 20.6 µM
- outcome (SK-MEL-5 melanoma): inactive
- TGI (U251 CNS): > 20.6 µM
- outcome (U251 CNS): inactive
- TGI (K-562 leukemia): > 20.6 µM
- outcome (K-562 leukemia): inactive
- TGI (MDA-MB-231 breast): > 20.6 µM
- outcome (MDA-MB-231 breast): inactive
- TGI (SK-OV-3 ovarian): > 20.6 µM
- outcome (SK-OV-3 ovarian): inactive
- TGI (HOP-92 NSCLC): > 20.6 µM
- TGI (COLO 205 colon): > 20.6 µM
- outcome (COLO 205 colon): inactive
- TGI (BT-549 breast): > 20.6 µM
- TGI (UO-31 renal): > 20.6 µM
- outcome (UO-31 renal): inactive
- TGI (LXFL 529 NSCLC): > 20.6 µM
- TGI (EKVX NSCLC): > 20.6 µM
- outcome (EKVX NSCLC): inactive
- TGI (ACHN renal): > 20.6 µM
- outcome (ACHN renal): inactive
- TGI (NCI-H522 lung): > 20.6 µM
- outcome (NCI-H522 lung): inactive
- TGI (TK-10 renal): > 20.6 µM
- outcome (TK-10 renal): inactive
- TGI (HCC-2998 colon): > 20.6 µM
- outcome (HCC-2998 colon): inactive
- TGI (SNB-19 CNS): > 20.6 µM
- outcome (SNB-19 CNS): inactive
- outcome (PC-3 prostate): inactive
- TGI (IGROV1 ovarian): > 6.51 µM
- outcome (IGROV1 ovarian): inactive
- TGI (DU-145 prostate): > 20.6 µM
- outcome (DU-145 prostate): inactive
- TGI (HCT-116 colon): > 20.6 µM
- outcome (HCT-116 colon): inactive
- TGI (MCF7 breast): > 20.6 µM
- outcome (MCF7 breast): inactive
- TGI (DMS 114 small cell lung): > 20.6 µM
- TGI (SR leukemia): 14.2 µM
- outcome (SR leukemia): inactive
- TGI (RXF 393 renal): > 19.5 µM
- outcome (RXF 393 renal): inactive
- TGI (HS 578T breast): > 20.6 µM
- outcome (HS 578T breast): inactive
- TGI (SNB-78 CNS): > 20.6 µM
- TGI (MOLT-4 leukemia): 12.3 µM
- outcome (MOLT-4 leukemia): inactive
- TGI (A549 NSCLC): > 20.6 µM
- outcome (A549 NSCLC): inactive
- TGI (NCI-H460 lung): > 20.6 µM
- outcome (NCI-H460 lung): inactive
- outcome (MDA-N): inactive
- TGI (UACC-257 melanoma): > 20.6 µM
- outcome (UACC-257 melanoma): inactive
- TGI (CCRF-CEM leukemia): > 17.3 µM
- outcome (CCRF-CEM leukemia): inactive
- TGI (MALME-3M melanoma): > 20.6 µM
- outcome (MALME-3M melanoma): inactive
- TGI (NCI-H226 lung): > 20.6 µM
- outcome (NCI-H226 lung): inactive
- TGI (OVCAR-3 ovarian): > 20.6 µM
- outcome (OVCAR-3 ovarian): inactive
- TGI (LOX IMVI melanoma): > 20.6 µM
- outcome (LOX IMVI melanoma): inactive
- TGI (MDA-MB-435): > 20.6 µM
- outcome (MDA-MB-435): inactive
- TGI (OVCAR-5 ovarian): > 20.6 µM
- outcome (OVCAR-5 ovarian): inactive
- TGI (OVCAR-8 ovarian): > 20.6 µM
- outcome (OVCAR-8 ovarian): inactive
- TGI (HT29 colon): > 20.6 µM
- outcome (HT29 colon): inactive
- TGI (NCI/ADR-RES ovarian): > 20.6 µM
- outcome (NCI/ADR-RES ovarian): inactive
- TGI (HOP-62 NSCLC): > 20.6 µM
- outcome (HOP-62 NSCLC): inactive
- TGI (DMS 273 small cell lung): > 20.6 µM
- TGI (RPMI-8226 leukemia): > 18.6 µM
- outcome (RPMI-8226 leukemia): inactive
- TGI (SF-268 CNS): > 20.6 µM
- outcome (SF-268 CNS): inactive
- TGI (SW-620 colon): > 20.6 µM
- outcome (SW-620 colon): inactive
- TGI (KM12 colon): > 20.6 µM
- outcome (KM12 colon): inactive

From PubChem BioAssay (NCI)
